Source: patent US9493468B2, “Antifungal 5,6-dihydro-4H-pyrrolo[1,2-a][1,4]benzo-diazepines and 6H-pyrrolo[1,2-a][1,4]benzodiazepines substituted with heterocyclic derivatives” (Janssen Pharmaceutica NV, priority 2011, dated 2016)

How the values were obtained:
Format in all cases: cell-based
[1] = test system: Trichophyton mentagrophytes; assay: Antifungal activity in vitro, resazurin growth inhibition: Trichophyton mentagrophytes (B70554)
Method in brief: (§1)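 Broth microdilution: RPMI-1640/L-Gln/2% glucose, MOPS pH 7.0±0.1; 10^3 cfu/well; top concentration 64 μM, 2- or 4-fold steps. Dermatophytes at 27° C., one week or more. Resazurin 0.005% (w/v) added, fluorescence 550/590 nm.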

[2] = test system: Microsporum canis; assay: Antifungal activity in vitro, resazurin growth inhibition: Microsporum canis (B68128)
Method in brief: as §1

[3] = test system: Cryptococcus neoformans; assay: Antifungal activity in vitro, resazurin growth inhibition: Cryptococcus neoformans (B66663)
Method in brief: as §1

[4] = test system: Aspergillus fumigatus; assay: Antifungal activity in vitro, resazurin growth inhibition: Aspergillus fumigatus (B42928)
Method in brief: as §1

[5] = test system: Sporothrix schenkii; assay: Antifungal activity in vitro, resazurin growth inhibition: Sporothrix schenkii (B62482)
Method in brief: as §1

[6] = test system: Candida parapsilosis; assay: Antifungal activity in vitro, resazurin growth inhibition: Candida parapsilosis (B66126)
Method in brief: as §1

[7] = test system: Trichophyton rubrum; assay: Antifungal activity in vitro, resazurin growth inhibition: Trichophyton rubrum (B68183)
Method in brief: as §1

Row | SMILES | Inf. G: Trichophyton mentagrophytes B70554, pIC50 [1] | Inf. B: Microsporum canis B68128, pIC50 [2] | Inf. F: Cryptococcus neoformans B66663, pIC50 [3] | Inf. E: Aspergillus fumigatus B42928, pIC50 [4] | Inf. A: Sporothrix schenkii B62482, pIC50 [5] | Inf. D: Candida parapsilosis B66126, pIC50 [6] | Inf. C: Trichophyton rubrum B68183, pIC50 [7]
1 | Cc1cc(C2=NCc3c(Cl)cccc3-n3cccc32)ccn1 [Compound 96] | 5.00 | 4.80 | <4.19 | 4.40 | <4.19 | <4.19 | 5.10
2 | Cc1cc(C2=NCc3c(C)cccc3-n3cccc32)ccn1 [Compound 97] | 4.83 | 4.87 | <4.49 | <4.49 | <4.49 | <4.49 | 5.99
3 | FC(F)(F)c1cc(C2=NCc3ccc(Cl)cc3-n3cccc32)ccn1 [Compound 98] | 4.48 | <4.19 | 5.03 | 4.49 | 4.49 | 5.06 | 4.47
4 | Cc1ncc(C2=NCc3c(C)cccc3-n3cccc32)cn1 [Compound 99] | <4.19 | 5.10 | <4.19 | <4.19 | <4.19 | <4.19 | 4.89
5 | Cc1ncc(C2=NCc3c(Cl)cccc3-n3cccc32)cn1 [Compound 100] | <4.19 | 4.21 | <4.19 | <4.19 | <4.19 | <4.19 | <4.19
6 | FC(F)(F)c1ncc(C2=NCc3ccccc3-n3cccc32)cn1 [Compound 101] | 5.57 | 4.56 | <4.19 | <4.19 | <4.19 | <4.19 | 5.23
7 | Cc1cccc2c1CN=C(c1cnc(C(F)(F)F)nc1)c1cccn1-2 [Compound 103] | <4.19 | <4.19 | <4.19 | <4.19 | <4.19 | <4.19 | 4.49
8 | FC(F)(F)c1ncc(C2=NCc3c(Cl)cc(Cl)cc3-n3cccc32)cn1 [Compound 104] | <4.19 | <4.19 | <4.19 | 5.54 | <4.19 | <4.19 | 5.91
9 | Cn1ccc2cc(C3=NCc4c(Cl)cccc4-n4cccc43)ccc21 [Compound 106] | 5.51 | 5.79 | 5.26 | 5.05 | 4.90 | 5.09 | 6.18
10 | Cn1nc2ccc(C3=NCc4c(Cl)cccc4-n4cccc43)cc2n1 [Compound 108] | 5.43 | 4.98 | <4.49 | <4.49 | <4.49 | <4.49 | 5.99
